Drawing on US9309248B2, “Azaindolines” (Hoffmann-La Roche Inc., priority 2012, dated 2016), this text covers IC50 for 20 compounds.

For test [1], the target named is T1, BIR2 domain of XIAP (Homo sapiens, UniProt P98170, C202A/C213G).
T1 construct: 6× Histidine-tagged BIR2 domain, corresponding to amino acids 124-240 of XIAP
The test is described as follows: TR-FRET assay for BIR2 (inhibition of binding of XIAP BIR2 domain to SMAC-derived Peptide A). To be noted: 6x Histidine-tagged BIR2 domain (amino acids 124-240 of XIAP) 10 nM, Peptide A 20 nM. Here is the method: (§1) TR-FRET Assay for BIR2 and BIR3
(§2) The ability of a test compound to inhibit the binding of BIR2 and/or BIR3 domains of the XIAP protein to Peptide A (a SMAC-derived peptide described below) evidences that the test compound acts as a SMAC-mimetic resulting in reactivation of a cell's apoptotic pathway.
(§3) The peptides were labeled with the fluorescent tags FITC or TAMRA and Kd values were determined by fluorescence polarization assay. […] The peptide sequence was derivatized with biotin to provide […]-(ε-biotin)-OH 1:2 TFA as the substrate for the TR-FRET assay.
The XIAP protein sequence was obtained from the SWISS-PROT protein sequence database and the BIR2 and BIR3 domains were derived from that. The sequence of the BIR2 domain used for the TR-FRET assay is […].
Time-resolved fluorescence resonance energy transfer (TR-FRET) signals were measured 1 hour later at room temperature. Test compound potency was assessed at 10 serially diluted concentrations. Percentage of inhibition at each concentration was determined to generate an IC50 value for each test compound.

The target of test [2] is T2, BIR3 domain of XIAP (Homo sapiens, UniProt P98170).
T2 construct: BIR3 domain, corresponding to amino acids 241-356 of XIAP
T2 sequence (P98170 with tags, fused parts or gaps): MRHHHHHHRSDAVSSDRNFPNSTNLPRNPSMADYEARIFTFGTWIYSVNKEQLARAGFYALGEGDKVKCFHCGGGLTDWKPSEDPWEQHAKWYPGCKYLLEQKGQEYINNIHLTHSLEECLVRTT
As to the kind of experiment: TR-FRET assay for BIR3 (inhibition of binding of XIAP BIR3 domain to SMAC-derived Peptide A). To be noted: 6x Histidine-tagged BIR3 domain (amino acids 241-356 of XIAP) 10 nM, Peptide A 20 nM. Here is the method: as §1, §2, §3
The sequence of the BIR3 domain used for the TR-FRET assay is […]
Ten nanomolar of 6× Histidine-tagged BIR2 domain, corresponding to amino acids 124-240 of XIAP, or BIR3 domain, corresponding to amino acids 241-356 of XIAP, was mixed with 20 nM of the peptide […]-(z-biotin)-OH 1:2 TFA, in the presence of 50 mM Tris-Cl, pH 7.5, 100 mM NaCl, 1 mM dithiothreitol (DTT) and 0.1 mg/mL bovine serum albumin (BSA). Following a […] incubation at 37° C., Europium-Streptavidin and Allophycocyanin conjugated anti-Histidine antibody were added to a final concentration of 1.5 nM and 15 nM, respectively. Time-resolved fluorescence resonance energy transfer (TR-FRET) signals were measured 1 hour later at room temperature. Test compound potency was assessed at 10 serially diluted concentrations. Percentage of inhibition at each concentration was determined to generate an IC50 value for each test compound.

pIC50: −log10 of the molar value.

T1 sequence (P98170 with tags, fused parts or gaps C202A/C213G): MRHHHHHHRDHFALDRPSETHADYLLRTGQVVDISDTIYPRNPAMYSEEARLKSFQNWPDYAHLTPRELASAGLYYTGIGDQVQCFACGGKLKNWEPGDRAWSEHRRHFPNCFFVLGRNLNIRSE

On to `C[C@H](NCCO)C(=O)N[C@H](C(=O)N1c2ncccc2C[C@H]1C(=O)Nc1ccccc1)C1CCCCC1` [Example 91, (S)-1-{(S)-2-Cyclohexyl-2-[(S)-2-(2-hydroxy-ethylamino)-propionylamino]-acetyl}-2,3-dihydro-1H-pyrrolo[2,3-b]pyridine-2-carboxylic acid phenylamide], for which the pIC50 is 6.81 in test [1] and less than 4.26 in test [2].
On the same counts, the results for `CN[C@@H](C)C(=O)N[C@H](C(=O)N1c2ncccc2C[C@H]1C(=O)Nc1nc(C)cs1)C(C)C` [Example 66, (S)-1-[(S)-3-Methyl-2-((S)-2-methylamino-propionylamino)-butyryl]-2,3-dihydro-1H-pyrrolo[2,3-b]pyridine-2-carboxylic acid (4-methyl-thiazol-2-yl)-amide] are 6.30 and less than 4.26.
`CC[C@H](NC)C(=O)N[C@H](C(=O)N1c2ncccc2C[C@H]1C(=O)Nc1ccccc1)C1CCCCC1` [Example 82, 1-[(S)-2-Cyclohexyl-2-((S)-2-methylamino-butyrylamino)-acetyl]-2,3-dihydro-1H-pyrrolo[2,3-b]pyridine-2-carboxylic acid phenylamide]: the pIC50 in test [1] was 6.98; in test [2], less than 4.26.
As to `CN[C@@H](C)C(=O)N[C@H](C(=O)N1c2ncccc2C[C@H]1C(=O)Nc1ccccc1F)C(C)C` [Example 36, (S)-1-[(S)-3-Methyl-2-((S)-2-methylamino-propionylamino)-butyryl]-2,3-dihydro-1H-pyrrolo[2,3-b]pyridine-2-carboxylic acid (2-fluoro-phenyl)-amide], the pIC50 in test [1] is 7.90; in test [2], less than 4.26.
For `CN[C@@H](C)C(=O)N[C@H](C(=O)N1c2ncccc2C[C@H]1C(=O)NCC(F)(F)F)C(C)C` [Example 37, (S)-1-[(S)-3-Methyl-2-((S)-2-methylamino-propionylamino)-butyryl]-2,3-dihydro-1H-pyrrolo[2,3-b]pyridine-2-carboxylic acid (2,2,2-trifluoro-ethyl)-amide] the same measures were 6.49 and less than 4.26.
`CN[C@@H](C)C(=O)N[C@H](C(=O)N1c2ncccc2C[C@H]1C(=O)Nc1c(Cl)cc(Cl)cc1Cl)C(C)C` [Example 72, (S)-1-[(S)-3-Methyl-2-((S)-2-methylamino-propionylamino)-butyryl]-2,3-dihydro-1H-pyrrolo[2,3-b]pyridine-2-carboxylic acid (2,4,6-trichloro-phenyl)-amide]: the values for the pIC50 in test [1] and in test [2] were 7.86 and less than 4.26, respectively.
On the same counts, the results for `CN[C@@H](C)C(=O)N[C@H](C(=O)N1c2ncccc2C[C@H]1C(=O)NCc1cc(Cl)ccc1C)C(C)C` [Example 17, (S)-1-[(S)-3-Methyl-2-((S)-2-methylamino-propionylamino)-butyryl]-2,3-dihydro-1H-pyrrolo[2,3-b]pyridine-2-carboxylic acid 5-chloro-2-methyl-benzylamide] are 6.41 and 4.62.
As for `CN[C@@H](C)C(=O)N[C@H](C(=O)N1c2ncccc2C[C@H]1C(=O)Nc1cccc(F)c1F)C(C)C` [Example 60, (S)-1-[(S)-3-Methyl-2-((S)-2-methylamino-propionylamino)-butyryl]-2,3-dihydro-1H-pyrrolo[2,3-b]pyridine-2-carboxylic acid (2,3-difluoro-phenyl)-amide], the negative logarithm of the IC50 (pIC50) in test [1] is 7.42; in test [2], less than 4.26.
`CC[C@H](NC)C(=O)N[C@H](C(=O)N1c2ncccc2C[C@H]1C(=O)Nc1c(F)cccc1F)C(C)C` [Example 78, (S)-1-[(S)-3-Methyl-2-((S)-2-methylamino-butyrylamino)-butyryl]-2,3-dihydro-1H-pyrrolo[2,3-b]pyridine-2-carboxylic acid (2,6-difluoro-phenyl)-amide]: the pIC50 is 7.85 in test [1] and less than 4.26 in test [2].
For `CN[C@@H](C)C(=O)N[C@H](C(=O)N1c2ncccc2C[C@H]1C(=O)Nc1ccc(C)cc1F)C(C)C` [Example 46, (S)-1-[(S)-3-Methyl-2-((S)-2-methylamino-propionylamino)-butyryl]-2,3-dihydro-1H-pyrrolo[2,3-b]pyridine-2-carboxylic acid (2-fluoro-4-methyl-phenyl)-amide] the same measures were 8.39 and less than 4.26.
On the same counts, the results for `CN[C@@H](C)C(=O)N[C@H](C(=O)N1c2ncccc2CC1C(N)=O)C(C)C` (stereo partly drawn) [Example 8, (R,S)-1-[(S)-3-Methyl-2-((S)-2-methylamino-propionylamino)-butyryl]-2,3-dihydro-1H-pyrrolo[2,3-b]pyridine-2-carboxylic acid amide] are 6.30 and less than 4.26.
As for `CN[C@@H](C)C(=O)N[C@H](C(=O)N1c2ncccc2C[C@H]1C(=O)Nc1c(C)cccc1F)C(C)C` [Example 32, (S)-1-[(S)-3-Methyl-2-((S)-2-methylamino-propionylamino)-butyryl]-2,3-dihydro-1H-pyrrolo[2,3-b]pyridine-2-carboxylic acid (2-fluoro-6-methyl-phenyl)-amide], the pIC50 is 8.02 in test [1] and less than 4.26 in test [2].
On the same counts, the results for `CN[C@@H](C)C(=O)N[C@H](C(=O)N1c2ncccc2C[C@H]1C(=O)NC(C)(C)c1ccccc1)C(C)C` [Example 54, (S)-1-[(S)-3-Methyl-2-((S)-2-methylamino-propionylamino)-butyryl]-2,3-dihydro-1H-pyrrolo[2,3-b]pyridine-2-carboxylic acid (1-methyl-1-phenyl-ethyl)-amide] are 5.32 and 4.32.
For `CC[C@H](NC)C(=O)N[C@H](C(=O)N1c2ncccc2C[C@H]1C(=O)Nc1ccccc1)C(C)C` [Example 85, (S)-1-[(S)-3-Methyl-2-((S)-2-methylamino-butyrylamino)-butyryl]-2,3-dihydro-1H-pyrrolo[2,3-b]pyridine-2-carboxylic acid phenylamide] the same measures were 7.16 and less than 4.26.
On the same counts, the results for `CCNC(=O)C1Cc2cccnc2N1C(=O)[C@@H](NC(=O)[C@H](C)NC)C(C)C` (mixture of isomers) [Example 1, (R,S)-1-[(S)-3-Methyl-2-((S)-2-methylamino-propionylamino)-butyryl]-2,3-dihydro-1H-pyrrolo[2,3-b]pyridine-2-carboxylic acid ethylamide] are 5.98 and less than 4.26.
For the compound `CC[C@H](NC)C(=O)N[C@H](C(=O)N1CC(C)(C)c2cccnc21)C(C)C` [Example 3, (S)—N—[(S)-1-(3,3-Dimethyl-2,3-dihydro-pyrrolo[2,3-b]pyridine-1-carbonyl)-2-methyl-propyl]-2-methylamino-butyramide], the pIC50 in test [1] is 5.39; in test [2] it was less than 4.26.
Regarding `CN[C@@H](C)C(=O)N[C@H](C(=O)N1c2ncccc2C[C@H]1C(=O)NC(C)c1ccccc1)C(C)C` (stereo partly drawn) [Example 52, (S)-1-[(S)-3-Methyl-2-((S)-2-methylamino-propionylamino)-butyryl]-2,3-dihydro-1H-pyrrolo[2,3-b]pyridine-2-carboxylic acid (1-phenyl-ethyl)-amide], the pIC50 in test [1] was 6.01; in test [2], 4.67.
On the same counts, the results for `CN[C@@H](C)C(=O)N[C@H](C(=O)N1c2ncccc2C[C@@H]1C(=O)Nc1ccccc1Oc1ccccc1)C(C)C` [Example 31, (R)-1-[(S)-3-Methyl-2-((S)-2-methylamino-propionylamino)-butyryl]-2,3-dihydro-1H-pyrrolo[2,3-b]pyridine-2-carboxylic acid (2-phenoxy-phenyl)-amide] are 4.93 and less than 4.26.
On the same counts, the results for `CN[C@@H](C)C(=O)N[C@H](C(=O)N1c2ncccc2C[C@H]1C(=O)Nc1c(F)cccc1F)C1CCOCC1` [Example 94, (S)-1-[(S)-2-((S)-2-Methylamino-propionylamino)-2-(tetrahydro-pyran-4-yl)-acetyl]-2,3-dihydro-1H-pyrrolo[2,3-b]pyridine-2-carboxylic acid (2,6-difluoro-phenyl)-amide] are 8.01 and less than 4.26.
On the same counts, the results for `CN[C@@H](C)C(=O)N[C@H](C(=O)N1c2ncccc2C[C@H]1C(=O)Nc1ccccc1Cl)C(C)C` [Example 25, (S)-1-[(S)-3-Methyl-2-((S)-2-methylamino-propionylamino)-butyryl]-2,3-dihydro-1H-pyrrolo[2,3-b]pyridine-2-carboxylic acid (2-chloro-phenyl)-amide] are 7.60 and less than 4.26.
